Holding throughout (assay type): cell-based
For assay [1], the system named is Escherichia coli resistant (ATCC700891). The assay is described as follows: Fast (1 hour) high dose detection of resistant bacteria by fluorescence microscopy. As for the experimental part: (§1) To rapidly detect high resistant bacteria to a particular antimicrobial agent, bacteria were grown during a short period of time (1 hour) in the presence of high dose of that antimicrobial agent. Two strains of Escherichia coli, one susceptible (ATCC25922) and the other resistant (ATCC700891) to ampicillin were grown until an exponential phase in culture media. Bacteria cultures were diluted in culture media (Mueller Hinton cation adjusted broth) and were incubated at a final concentration of 2×10^4 CFU/mL during 1 hour at 37° C. in the presence of ampicillin at a final concentration of 128 mg/L, 64 mg/L, and 32 mg/L in a final volume of 10 μL. Three replicates were performed for each antibiotic concentration.
(§2) Samples were visualized at time 0 that represents bacteria before any incubation and after 1 hour incubation. 5 μL of each sample were transferred to a 384-well plate with flat polystyrene film bottom and incubated with fluorescence dyes (SYBR Green and Propidium Iodide) during 10 minutes at room temperature in the dark. The 384-well plate was centrifuged during 1 minute at 3000 g in a swinging-bucket movement and observed in an inverted fluorescence microscope. For each sample a composite image covering the bottom of each well was constructed. Images were analyzed with a custom software to count bacteria, detect filamentous bacteria, counts red bacteria, and record the brightness of bacteria. These images are illustrated in FIG. 26A.

In assay [2] the test system is Escherichia coli susceptible (ATCC25922). Described as above. The method, then:
as §1, §2

Assay [3] has as its system Escherichia coli resistant (ATCC700891). The assay is described as follows: Broth microdilution method MIC. Particulars: E. coli ATCC700891, read-out: MIC according to broth microdilution method.
Assay [4] concerns Escherichia coli susceptible (ATCC25922). The assay is described as follows: Broth microdilution method MIC. As to conditions: E. coli ATCC25922, read-out: MIC according to broth microdilution method.
The test system of assay [5] is Staphylococcus aureus resistant (ATCC43300). The assay is described as follows: Broth microdilution method MIC. As to conditions: S. aureus ATCC43300. In general terms: Broth dilution looks for growth in wells or tubes with falling amounts of substance.
For assay [6], the system named is Staphylococcus aureus susceptible (ATCC29213). Nature of the assay: Microscopy-based AST (MIC) from liquid culture. As for the experimental part: (§3) The minimal inhibitory concentration was determined for two strains of Gram-positive bacteria Staphylococcus aureus, one susceptible (ATCC29213) and one resistant (ATCC43300) to erythromycin, according to embodiments described herein. […] Bacteria cultures were diluted in culture media (Mueller Hinton cation adjusted broth) and were incubated at a final concentration of 2×10^4 CFU/mL during 5 hours at 37° C. at different concentrations of […] in a final volume of 10 μL. S. aureus strain susceptible to erythromycin was tested at 1, 0.5, 0.25, 0.125, 0.06 and 0.03 mg/L, whereas resistant strain was tested at 4, 2, 1, 0.5, 0.25 and 0.125 mg/L of erythromycin. Three replicates were performed for each antibiotic concentration.
(§4) Samples were analyzed at time 0 of incubation and after 5 hours incubation (with and without antibiotic). Samples were incubated with fluorescence dyes (SYBR Green and Propidium Iodide) during 10 minutes at room temperature in the dark. After dye incubation a sample of 1 μL was diluted with 4 μL of buffer (NaCl 0.9%) and transferred to a 384-well plate with flat polystyrene film bottom. The 384-well plate was centrifuged during 1 minute at 3000 g in a swinging-bucket movement and observed in an inverted fluorescence microscope. For each sample, a composite image covering the bottom of each well was constructed. Images were analyzed with a custom software to count bacteria, detect filamentous bacteria, counts red bacteria, and record the brightness of bacteria.
(§5) Data obtained from images was used to perform a Graph either for S. aureus susceptible and resistant to erythromycin (FIGS. 25A and 25B, respectively).

Assay [7] concerns Staphylococcus aureus resistant (ATCC43300). The assay is described as follows: Microscopy-based AST (MIC) from liquid culture. The method, then: as §3, §4, §5
Assay [8] has as its system Staphylococcus aureus susceptible (ATCC29213). The assay is described as follows: Broth microdilution method MIC. As to conditions: S. aureus ATCC29213.
[9] abbreviates: 128 mg/L, 64 mg/L and 32 mg/L, 1 hour at 37° C.

Values after ≈ are worked out from the molar mass of the structure shown.

The source of these data is patent publication US20250075248A1, “SYSTEMS, METHODS, AND DEVICES FOR ANTIMICROBIAL SUSCEPTIBILITY TESTING” (Deepull Diagnostics S.L., priority 2022, published 2025).

A word on the MIC: it is the lowest concentration that inhibits growth of the organism. As for `CC1(C)S[C@@H]2[C@H](NC(=O)[C@H](N)c3ccccc3)C(=O)N2[C@H]1C(=O)O` [ampicillin, Ampicillin], the figures for the “bacterial growth after 1 hour incubation” value in assay [1] (setting [9]) and in assay [2] (setting [9]) were “showed growth” and “does not grow”, respectively. For the same compound, the “filamentous or red bacteria after 1 hour incubation” value in assay [1] (all three tested concentrations (128, 64, 32 mg/L)) is recorded as “without presence of filamentous bacteria or red bacteria”. In assay [2] (at 128 mg/L), the “red (Propidium Iodide, dead) bacteria after 1 hour incubation” value was “presence of red bacteria”. Also, the “bacterial morphology after 1 hour incubation” value in assay [2] (in the three concentrations tested (128, 64, 32 mg/L)) is listed as “filamentous form”. Besides, the figures for the minimal inhibitory concentration (MIC) in assay [3] and in assay [4] were at least 128 µg/mL and 4 µg/mL (≈ 11.4 µM), respectively.
In the case of `CC[C@H]1OC(=O)[C@H](C)[C@@H](O[C@H]2C[C@@](C)(OC)[C@@H](O)[C@H](C)O2)[C@H](C)[C@@H](O[C@@H]2O[C@H](C)C[C@H](N(C)C)[C@H]2O)[C@](C)(O)C[C@@H](C)C(=O)[C@H](C)[C@@H](O)[C@]1(C)O` [erythromycin, Erythromycin], the MIC is at least 512 µg/mL in assay [5]; 0.25 µg/mL (≈ 0.341 µM) in assay [6] (Staphylococcus aureus, S. aureus ATCC29213, 2×10^4 CFU/mL, 5 hours at 37° C., image analysis); at least 4 µg/mL in assay [7] (Staphylococcus aureus, S. aureus ATCC43300, 2×10^4 CFU/mL, 5 hours at 37° C., highest concentration tested 4 mg/L); 0.25 to 0.5 µg/mL (≈ 0.341 to 0.681 µM) in assay [8]. Also, the “bacterial growth after 5 hours incubation” value was “showed growth” in assay [6] (at 0.125 mg/L); “did not grow” in assay [6] (at a concentration ≥0.25 mg/L); “showed growth” in assay [7] (at 4 mg/L and lower concentrations).
